Assay results from patent US20230140926A1, “IONIC LIQUID, SOLVENT, PREPARATION, AND TRANSDERMALLY ABSORBABLE AGENT” (Kyushu University, National University Corporation, priority 2020, published 2023).

Legend:
stratum corneum = test: Influence on stratum corneum of skin (FTIR); parameters: species or system pig; details: for Absorbance; CH2 asymmetric / Absorbance; CH2 symmetric / shift (cm^−1), CH2 asymmetric / shift (cm^−1), CH2 symmetric / shift (intensity), CH2 asymmetric / shift (intensity), CH2 symmetric: stratum corneum lipid; for Absorbance; CH2 asymmetric / Absorbance; CH2 symmetric / Absorbance; C═O amide-II / Absorbance; NH—C═O amide-I: FTIR, 30 minutes immersion; for shift (cm^−1), CH2 asymmetric / shift (cm^−1), CH2 symmetric / shift (intensity), CH2 asymmetric / shift (intensity), CH2 symmetric / shift (cm^−1), C═O amide-II / shift (cm^−1), NH—C═O amide-I / shift (intensity), C═O amide-II / shift (intensity), NH—C═O amide-I: versus untreated control; for Absorbance; C═O amide-II / Absorbance; NH—C═O amide-I / shift (cm^−1), C═O amide-II / shift (cm^−1), NH—C═O amide-I / shift (intensity), C═O amide-II / shift (intensity), NH—C═O amide-I: stratum corneum protein
Description: Frozen skin of a pig (YMPC, Hoshino Test Animal Breeding Co., Ltd.) was returned to room temperature, dried skin was warmed at 60° C. for from 60 to 120 seconds, and the epidermal layer was peeled from the skin. […] The isolated stratum corneum was washed with water and dried for an additional 24 hours. Sections of stratum corneum were immersed in test samples (IPM, Ionic Liquids 1, 2, 4, tween-80, DGME or PBS) in glass tubes for 30 minutes at room temperature. Stratum corneum sheets were washed with 20% ethanol and dried for 1 hour. The stratum corneum sheets were analyzed by Fourier transform infrared spectroscopy (FTIR) spectroscopy. Untreated stratum corneum was used as a control.

[1] = Evaluation of solubility of ionic liquids in a variety of solvents (visual); type: physicochemical; details: 50:50 by weight, room temperature
Description: The solubility of ionic liquids in a variety of solvents was evaluated at room temperature. Specifically, Ionic Liquids 1 to 3 were placed in a glass tube with respective solvents and mixed by stirring with a vortex mixer for from 1 to 2 minutes. The ratio of Ionic Liquids 1 to 3 to the corresponding solvents was 50:50 by weight. The solubility and transparency of the obtained liquids (liquid samples) were visually observed and evaluated according to the following criteria.
∘: Ionic liquid is dissolved uniformly and the clarity of the liquid sample is high
Δ: Ionic liquid is uniformly dissolved, but liquid sample is cloudy
×: Ionic liquid and solvent are separated, and the ionic liquid is not dissolved in the solvent. The same evaluation was performed for intermediate 2 ([EDMPC][Cl]) as a comparison.

| Compound | Absorbance; CH2 asymmetric (stratum corneum) [cm⁻¹] | Absorbance; CH2 symmetric (stratum corneum) [cm⁻¹] | shift (cm^−1), CH2 asymmetric (stratum corneum) [cm⁻¹] | shift (cm^−1), CH2 symmetric (stratum corneum) [cm⁻¹] | shift (intensity), CH2 asymmetric (stratum corneum) | shift (intensity), CH2 symmetric (stratum corneum) | Absorbance; C═O amide-II (stratum corneum) [cm⁻¹] | Absorbance; NH—C═O amide-I (stratum corneum) [cm⁻¹] | shift (cm^−1), C═O amide-II (stratum corneum) [cm⁻¹] | shift (cm^−1), NH—C═O amide-I (stratum corneum) [cm⁻¹] | shift (intensity), C═O amide-II (stratum corneum) | shift (intensity), NH—C═O amide-I (stratum corneum) | Solubility and transparency in Dimethyl sulfoxide ([1]; solvent Dimethyl sulfoxide) | Solubility and transparency in Ethanol ([1]; solvent Ethanol) | Solubility and transparency in Isopropyl alcohol ([1]; solvent Isopropyl alcohol) | Solubility and transparency in Isopropyl myristate ([1]; solvent Isopropyl myristate) |
| --- | --- | --- | --- | --- | --- | --- | --- | --- | --- | --- | --- | --- | --- | --- | --- | --- |
| CCOCCOCCO [DGME, diethylene glycol monoethyl ether] | 2918 | 2853 | 0 | 2 | 2.37 | 1.25 | 1648 | 1541 | 1 | 4 | 18.00 | 14.31 | – | – | – | – |
| CCCCCCCCCCCCCC(=O)OC(C)C [IPM, isopropyl myristate] | 2920 | 2853 | 2 | 2 | 1.72 | 1.08 | 1648 | 1539 | 1 | 2 | 13.95 | 10.59 | – | – | – | – |
| CCCCCCCCCCCCCC(=O)OC[C@H](COP(=O)(OCC)OCC[N+](C)(C)C)OC(=O)CCCCCCCCCCCCC (stereo partly shown) [Intermediate 2, EDMPC chloride] | – | – | – | – | – | – | – | – | – | – | – | – | ◯ | ◯ | ◯ | ◯ |
| tween-80 | 2920 | 2853 | 2 | 2 | 2.80 | 1.30 | 1648 | 1542 | 1 | 5 | 19.01 | 16.14 | – | – | – | – |
